{
  "source": "patent US10106828B2",
  "about": "“Cell culture medium and process for protein expression, said medium and process comprising a PAM inhibitor” (SANDOZ GMBH, priority 2010, dated 2018)",
  "key": {"[1]": {"system": "CHO cells", "assay": "Influence of PAM inhibitors on proline amide formation on a monoclonal antibody (chimeric IgG) expressed in CHO cells, CEX-CPB analysis / peptide mapping", "type": "cell-based, Chinese hamster", "conditions": "FIG. 1; for amount of pseudo 1K (proline amide) in CEX-CPB: monoclonal antibody (chimeric IgG), control without inhibitor app. 10%", "source_text": "The amount of proline amide can be identified and quantified by various analytical methods, by distinguishing the amidated variant from the non-amidated one by physico-chemical differences such as charge, hydrophobicity or mass. The most common method is ion exchange chromatography, as the CEX-CPB method (cation exchange chromatography after digestion by carboxypeptidase B), exploiting the charge alteration due to proline amidation.\n(§1) For antibodies, co-elution of proline amide variants with lysine variants is avoided by removal of lysine residues using carboxypeptidase B digestion prior to chromatographic separation. Additional co-elution with other basic variants, however, can result in a quantification background of several percent (e.g. 4%). Proline amide variants plus background are termed “Pseudo 1K” for eluting at the chromatographic position of the antibody variant with one C-terminal lysine residue. “Pseudo 2K” encompasses the proline variants plus background eluting at the chromatographic position of the antibody variant with two C-terminal lysine residue. The difference to the CEX method (i.e. CEX without lysine removal by CPB digestion) is indicating the amount of antibody variants with lysine residues, termed “Real 1K” and “Real 2K”. The quantification by CEX(-CPB) returns the percentage of proline amidated antibodies relative to all antibody molecules in a solution. An analytical test method which unambiguously can identify and quantify amidated proline variants is RP-HPLC (reversed-phase high-performance-liquid-chromatography) of endopeptidase (e.g. LysC, Trypsin) digested protein, so called peptide mapping, using UV (ultraviolet) or MS (mass-spec) detection. The quantification by RP-HPLC peptide mapping returns for an antibody the percentage of proline amidated heavy chains relative to all heavy chains.\n“Pseudo 1K” is the variant determined by CEX-CPB where one of the two heavy chains of an antibody (IgG) has a proline amide at its C-terminus. “Pseudo 2K” is the variant determined by CEX-CPB where both heavy chains of a monoclonal antibody have a proline amide at their C-termini.\nIn their experiments, the inventors focused on published PAM inhibitors as potential medium components. Among the screened components are, i.e., sodium sulfite, tiopronin, captopril, EDTA, ammonium sulfite, L-histidine, D-histidine, ammonium meta thiomolybdate, L-carnosine, penicillamine, 4-phenyl-3 butenoic acid (PBA). […]\nFIG. 1: Influence of PAM inhibitors on proline amide (PA) formation, quantified as ‘pseudo 1K’ in CEX-CPB analysis, on a monoclonal antibody (chimeric IgG) expressed in CHO cells. […]"}, "[2]": {"system": "CHO cells", "assay": "Influence of PBA on proline amide formation on an Fc-fusion protein expressed in CHO cells, quantified by peptide mapping", "type": "cell-based, Chinese hamster", "conditions": "for proline amide (% per heavy chain): without PBA >4%", "source_text": "as §1\nTwo recombinant proteins were used to investigate the effect of PAM inhibitors on amino acid amidation/proline amid formation, i.e., a monoclonal antibody (human-mouse-chimeric IgG), and an Fc-fusion protein. CHO cells were used as expression system.\nFIG. 2: Influence of PAM inhibitor PBA on proline amide formation on an Fc-fusion protein expressed in CHO cells, as quantified by peptide mapping. Supplementing the cultures of recombinant CHO cells with various concentrations of PBA up to 100 μM decreased the amount of proline amide (% per heavy chain) in a dose-dependent effect curve from app. 2% (no PBA) to app. 0.1% (100 μM PBA).\nFIG. 3: Influence of PAM inhibitor PBA on proline amide formation on an Fc-fusion protein expressed in CHO cells, as quantified by peptide mapping."}},
  "data": [
    {"smiles": "O=C(O)CC=Cc1ccccc1", "note": "[PBA, 4-phenyl-3-butenoic acid]", "values": [
      {"measurement": "amount of pseudo 1K (proline amide) in CEX-CPB", "setting": "[1]; 10 μM in cell culture medium", "result": "~8", "unit": "%"},
      {"measurement": "amount of pseudo 1K (proline amide) in CEX-CPB", "setting": "[1]; 100 μM in cell culture medium", "result": "~5", "unit": "%"},
      {"measurement": "proline amide per heavy chain, peptide mapping", "setting": "[1]; corresponds to 5% pseudo 1K in CEX-CPB (100 μM), monoclonal antibody", "result": "0-2%"},
      {"measurement": "effect on proline amide formation compared with other screened PAM inhibitors", "setting": "[1]; supplemented to the cell culture", "result": "strongest effect"},
      {"measurement": "amount of proline amide (% per heavy chain)", "setting": "[2]; FIG. 2, 100 μM PBA, no PBA app. 2%", "result": "~0.1", "unit": "%"},
      {"measurement": "effect curve of proline amide decrease", "setting": "[2]; FIG. 2, various concentrations up to 100 μM", "result": "dose-dependent"},
      {"measurement": "proline amide (% per heavy chain)", "setting": "[2]; FIG. 3, 50 μM PBA", "result": "< 1", "unit": "%"},
      {"measurement": "proline amide (% per heavy chain)", "setting": "[2]; FIG. 3, 100 μM PBA", "result": "< 0.5", "unit": "%"}
    ]}
  ]
}
